From patent publication US9284350B2, “IAP BIR domain binding compounds” (Pharmascience Inc., priority 2010, dated 2016) come the findings set out here.

The target in one series is T1, XIAP (Homo sapiens, UniProt P98170).
T1 construct: fused on or other part: GST tag at the N-terminus (pGEX4T vectors)
Put plainly: Fluorescence polarization-based competition assay, XIAP. Type of series: binding. As to conditions: FP assay, ki derived from IC50. A digest of the protocol:
(§1)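 Competition of FITC-labelled probe (2 nM) binding to the BIR domain, protein set at 80% of maximal FP signal; 10-point compound dilutions in 50 mM HEPES pH 7.5, γ-globulin, 2 mM DTT, 1% DMSO, 1 h at room temperature in the dark. IC50 from sigmoidal fit; Ki derived from IC50.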

For another series, the target named is T2, c-IAP1 (Homo sapiens, UniProt Q13490).
T2 construct: GST (N); made in house; host or cells: E. coli DH5α
T2 sequence (Q13490 251-363): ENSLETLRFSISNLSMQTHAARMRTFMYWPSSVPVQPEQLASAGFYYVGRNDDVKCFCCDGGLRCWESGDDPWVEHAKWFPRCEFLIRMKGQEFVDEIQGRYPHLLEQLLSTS
The experiment in a line: Fluorescence polarization-based competition assay, c-IAP1. Format: binding. The conditions noted are these: FP assay, ki derived from IC50. A digest of the protocol:
as §1
(Polarisation of emitted light reports the rotation of a fluorescent probe.)

A further series deals with T3, cIAP2 (Homo sapiens, UniProt Q13489).
T3 construct: GST (N); made in house; host or cells: E. coli DH5α
T3 sequence (Q13489 236-349): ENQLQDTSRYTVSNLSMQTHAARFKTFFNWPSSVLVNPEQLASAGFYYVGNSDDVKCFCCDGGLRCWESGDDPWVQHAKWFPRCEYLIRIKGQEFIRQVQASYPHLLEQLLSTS
Put plainly: Fluorescence polarization-based competition assay, cIAP2. Type of series: binding. The conditions noted are these: FP assay, ki derived from IC50. An outline of the steps: as §1

Series [1] has as its system Colorectal carcinoma HCT116 cells. The experiment in a line: Cell death assay (MTT) in combination with HGS ETR1. The conditions noted are these: with HGS ETR1 30 ng/ml, 72 hours, read-out: HCT116+ mapatubimap EC50. Format: cell-based. A digest of the protocol:
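HCT116 cells (2000/well, McCoy's 5a, 10% FBS) were treated 24 h after plating with compound plus the agonistic TRAIL receptor antibody mapatumumab (ETR1, 30 ng/ml) for 72 hours. Viability was read by MTT. EC50 was the concentration giving 50% survival relative to untreated controls.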

The nature of series [2]: Maximum Tolerated Dose (MTD) study. Type of series: in vivo, CD-1 mice. As to conditions: 350 mg/kg dose, PO twice weekly. As to the method:
Male, CD-1 mice (20-25 g on arrival, Charles River) were habituated to the animal facility for four days and then randomly assigned to treatment groups. Animals were dosed by oral gavage twice weekly, for a total of six treatments, with compounds 63, 58, 45, 10, 20, 40, and 66 at 15, 70, or 350 mg/kg in water, PO, or water alone (5 ml/kg, PO). Body weight and general health were monitored throughout the experiment. Twenty four hours after the last dose (day 19), animals were anesthetized with isoflurane, and blood was collected for serum biochemistry. Serum biochemical parameters were restricted to random glucose, urea, creatinine, total protein, albumin, globulin, A:G ratio, total bilirubin, AST, ALT, alkaline phosphatase, GGT and amylase. Once exsanguinated the animals underwent full necropsy and organ weights were recorded for brain, heart, liver, spleen, kidneys, stomach (empty) and intestine (empty, from stomach to cecum). Because some treatments were suppressing weight gain (see below), organ weights were normalized to brain weight, and then expressed as percent change from the vehicle treated control group.

Each structure is given as a SMILES string.

T1 sequence (P98170 246-497 limits assumed): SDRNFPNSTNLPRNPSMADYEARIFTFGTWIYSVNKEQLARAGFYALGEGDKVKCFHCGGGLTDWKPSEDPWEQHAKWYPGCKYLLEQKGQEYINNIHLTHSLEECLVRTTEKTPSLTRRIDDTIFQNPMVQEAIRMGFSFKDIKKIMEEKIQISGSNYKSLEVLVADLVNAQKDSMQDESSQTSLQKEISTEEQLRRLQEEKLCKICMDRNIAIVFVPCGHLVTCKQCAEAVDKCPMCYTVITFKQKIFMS

Usually Ki stands for the equilibrium dissociation constant of an inhibitor or competing ligand from its target. Read a low Ki as a stronger hold on the target. In general, EC50 refers to the concentration that produces a half-maximal response. Consider `CN[C@@H](C)C(=O)N[C@H](C(=O)N1CCC[C@H]1CN(CCc1ccc(F)cc1)C(=O)c1cn2cc(F)cnc2n1)C(C)(C)C` [Compound 63], for which the Ki is under 250 nM on XIAP, under 25 nM at c-IAP1 and under 25 nM on cIAP2. Further, the EC50 in series [1] is under 50 nM. In series [2], the body weight change result is recorded as “slight weight loss”.

As for `CN[C@@H](C)C(=O)N[C@H](C(=O)N1CCC[C@H]1CN(CCc1ccc(F)cc1)C(=O)c1cn(C)cn1)C(C)(C)C` [Compound 40], the Ki on XIAP is under 250 nM; at c-IAP1 it was under 25 nM; at cIAP2, under 25 nM. Besides, the EC50 in series [1] is under 50 nM. In addition, in series [2], the body weight change entry is “slight weight loss”.
